{
  "source": "patent US8829028B2",
  "about": "“5-HT4 receptor antagonists for the treatment of heart failure” (Serodus AS, priority 2002, dated 2014)",
  "key": {"[1]": {"biological_target": "T1, 5-HT4 receptor (Homo sapiens, UniProt Q13639)", "T1 sequence (Q13639 whole entry)": "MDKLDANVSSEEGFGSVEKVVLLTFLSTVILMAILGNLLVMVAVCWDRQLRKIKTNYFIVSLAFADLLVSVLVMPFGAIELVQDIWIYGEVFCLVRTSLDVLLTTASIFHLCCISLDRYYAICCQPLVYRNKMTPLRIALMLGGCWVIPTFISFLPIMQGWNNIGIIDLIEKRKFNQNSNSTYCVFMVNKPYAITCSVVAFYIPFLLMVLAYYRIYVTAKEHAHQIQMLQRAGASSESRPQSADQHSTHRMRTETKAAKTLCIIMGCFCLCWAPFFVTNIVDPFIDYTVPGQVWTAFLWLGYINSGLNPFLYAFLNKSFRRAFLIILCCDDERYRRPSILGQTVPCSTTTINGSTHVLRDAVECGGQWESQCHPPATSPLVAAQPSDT", "details": "Gale et al., 1994; cited from earlier work"}, "[2]": {"biological_target": "T1, 5-HT4 receptor", "test": "Inotropic response in trabecular muscle from explanted human heart with dilated cardiomyopathy (IBMX present)", "assay_type": "cell-based", "parameters": "Trabecular muscles were prepared, mounted in organ baths; from tissue; host or cells: trabecular muscle from explanted human hearts (post-infarct; dilated cardiomyopathy)", "details": "1 μM GR113808 after 10 μM serotonin; IBMX 35 μM"}, "[3]": {"biological_target": "T2, 5-HT4 receptor (Rattus norvegicus, UniProt Q62758)", "T2 construct": "The papillary muscles were mounted in organ baths; from tissue; host or cells: rat posterior left ventricular papillary muscle (post-MI or aortic-banding heart failure)", "T2 sequence (Q62758 whole entry)": "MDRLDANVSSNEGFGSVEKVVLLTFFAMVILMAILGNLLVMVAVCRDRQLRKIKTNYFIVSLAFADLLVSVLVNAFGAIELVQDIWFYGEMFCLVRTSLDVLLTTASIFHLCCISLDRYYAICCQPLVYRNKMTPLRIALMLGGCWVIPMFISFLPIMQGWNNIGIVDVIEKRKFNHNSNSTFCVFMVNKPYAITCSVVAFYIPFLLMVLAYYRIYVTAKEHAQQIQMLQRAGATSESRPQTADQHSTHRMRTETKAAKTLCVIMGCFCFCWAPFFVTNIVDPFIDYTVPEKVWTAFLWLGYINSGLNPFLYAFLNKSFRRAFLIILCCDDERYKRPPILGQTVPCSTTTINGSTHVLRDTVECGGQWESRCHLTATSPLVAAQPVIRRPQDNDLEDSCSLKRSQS", "test": "Antagonism of the serotonin inotropic response by 5-HT4 antagonists in post-MI rat papillary muscle (reversal, curve shift, Schild Kb)", "assay_type": "cell-based", "description": "The muscles were field stimulated with alternating polarity at 1 Hz with impulses of 5 msec duration and current about 20% above individual threshold (10-15 mA, determined in each experiment). The isometrically contracting muscles were stretched to the maximum of their length-tension curve. The force was recorded and analysed as previously described (Skomedal et al., 1997, J. Pharmacol. Exp. Ther. 280: 721-729). The muscles were allowed to equilibrate for 90 minutes. […] Averaged contraction-relaxation cycles (CRC) were calculated for different experimental periods, and these cycles were used to determine descriptive parameters like maximal development of force (dF/dt)max, time to peak force (TPF) and time to relaxation to 20% level (TR2O). Relaxation time (RT) was calculated as TR2O-TPF. (dF/dt)max was used as an index of contractility. Inotropic responses induced by agonists were expressed by increase in (dF/dt)max. RT was used as index of relaxation. Lusitropic responses were expressed as reduction in RT. Mechanical response at the end of the equilibrium period was used as the control response.\nAgonist was added cumulatively or as a single bolus directly to the organ baths and was completely mixed in the solution within 2-3 seconds. […] The different agonists were added directly to the organ baths in increasing concentrations until supramaximal concentrations of agonist were obtained with respect to maximal inotropic response.\nThe responses for each concentration of agonist were generally calculated as percent of maximal response. The concentration-response curves constructed from papillary muscle experiment were constructed according to Ariens and Simonis (1964, supra), by estimating centiles (EC10 to EC100) for each single experiment and calculating the corresponding means. This calculation provides mean curves that express the response as fractional response or percent of maximum and display horizontal positioning and the correct mean slope of the curves. The horizontal positioning of the concentration-response curves was expressed as pEC50-values (=−log EC50). Data are expressed as mean±standard error of the mean (SEM) and the number of animals expressed as n. The significance levels of differences were calculated according to Students t-test. P<0.05 is considered statistically significant. The inhibition constants Kb were calculated from the Schild equation, based on the relative shifts of the concentration-response curves for receptor stimulation."}, "[4]": {"biological_target": "T2, 5-HT4 receptor", "test": "5-HT4 receptor-mediated inotropic response in papillary muscle of CHF rat 6 weeks after aortic banding", "assay_type": "cell-based", "details": "1 μM GR113808 after 10 μM serotonin", "procedure": "Trans-aortic constriction (aortic banding) of the ascending aorta was induced in 200 g male Wistar rats under anaesthesia, induced by 63% N2O, 32% O2 and 5% Isoflurane and maintained by 66% N2O, 33% O2 and 1-2% Isoflurane. A right-sided thoracotomi was performed through a 3-4 cm long cutaneous incision, the pericardium was opened and the ascending aorta identified and dissected free of surrounding tissue. A ligature was knit around the ascending aorta and a metal probe with diameter 0.9 mm. The metal probe was then removed. The result was a constriction of the ascending aorta with internal diameter about 0.9 mm. The thorax was then closed with 3-0 silk sutures and the skin closed with Dexon 1 sutures. […]\nPapillary muscle was extracted from a CHF rat 6 weeks after aortic banding as described above. osterior left ventricular papillary muscle was prepared, mounted in organ bath, equilibrated and field stimulated at 1 Hz (Sjaastad et al. 2003 supra), and the contraction-relaxation cycles (CRCs) were recorded and analysed as previously described (Skomedal et al. 1997, J. Pharmacol Exp Ther 280: 721-729) (Sjaastad et al., 2003, supra) with respect to maximal developed force (Fmax), maximal development of force (dF/dt)max, time to peak force (TPF), time to relaxation to 20% level (TR20) and relaxation time (RT=TR20-TPF)."}, "[5]": {"biological_target": "T1, 5-HT4 receptor", "test": "Inotropic response in trabecular muscle from explanted post-infarct human heart", "assay_type": "cell-based", "parameters": "Trabecular muscles were prepared, mounted in organ baths; from tissue; host or cells: trabecular muscle from explanted human hearts (post-infarct; dilated cardiomyopathy)", "details": "1 μM GR113808 after 10 μM serotonin", "description": "The heart was explanted from a patient who had survived a small myocardial infarction and died in hospital from subarachnoidal haemorrhage. Trabecular muscles were prepared, mounted in organ baths, equilibrated and field stimulated at 1 Hz (Skomedal et al., 1997, supra) and the contraction-relaxation cycles (CRCs) were recorded and analysed as previously described (Skomedal et al., 1997, supra) with respect to maximal developed force (Fmax), maximal development of force (dF/dt)max, time to peak force (TPF), time to relaxation to 20% level (TR20) and relaxation time (RT=TR20-TPF)."}},
  "data": [
    {"compound": "Cn1cc(C(=O)OCC2CCN(CCNS(C)(=O)=O)CC2)c2ccccc21", "note": "[GR113808, {1-[2-(methyl-sulphonylamino)ethyl]-4-piperidinyl}methyl 1-methyl-1H-indole-3-carboxylate]", "values": [
      {"measurement": "pKi", "setting": "[1]", "result": "9.2-9.7"},
      {"measurement": "reversal of the positive inotropic response to serotonin", "setting": "[2]", "result": "reversed"},
      {"measurement": "Kb", "setting": "[3]", "result": 500, "unit": "pM"},
      {"measurement": "reversal of the inotropic response evoked by 10 μmol/l serotonin", "setting": "[3]", "result": "completely reversed"},
      {"measurement": "reversal of the serotonin-induced shortening of the contraction-relaxation cycles", "setting": "[3]", "result": "not completely reversed"},
      {"measurement": "reversal of the positive inotropic response to serotonin", "setting": "[4]", "result": "reversed"},
      {"measurement": "reversal of the positive inotropic response to serotonin", "setting": "[5]", "result": "reversed"}
    ]}
  ]
}
